From patent US6620834B1, “Medicinal compositions for treating colorectal cancer” (Hisamitsu Pharmaceutical Co., Inc., priority 1999, dated 2003)

Test system: Yoshida's sarcoma
Test: liver metastasis inhibitory effect in Yoshida's sarcoma rat model bearing a colorectal cancer
Type: in vivo
Settings: Donryu rats, Yoshida's sarcoma injected to sigmoid subserous; intra-colon administration for 5 days, autopsy day 6; versus control group
Protocol: The solution was prepared in which pravastatin and aspirin were mixed in the mixing ratio below, and the pharmacological evaluation was carried out in the liver metastasis model of rat colorectal cancer.
The liver metastasis inhibitory effect was evaluated in the following procedure by use of the mix solution prepared in the example 1.
Donryu strain rats (8 weeks old) were used. Under a sodium pentobarbital anesthesia a catheter was inserted from the ileocecum into the colon, and the plug was put out from the back part and fixed. At the same time Yoshida's sarcoma (1.5×10^6cells/30 μl/rat) was injected to the sigmoid subserous.
The mix solution prepared in the example 1 was administered intra-colon or orally for 5 days from the next day after the surgery, and at day 6 a pathologic autopsy was made.
When the test on day 6 was finished, rats were killed by bleeding for a pathologic autopsy. The liver was isolated from each individual, fixed by a neutral buffered formalin solution, and a tissue section was then prepared to obtain histopathological findings. The metastasis inhibitory ratio was calculated comparing with the engraftment ratio of the cancer cells in the control group.

Q: With `CC(=O)Oc1ccccc1C(=O)O` [aspirin, Aspirin] as the molecule, how does the “liver metastasis inhibitory effect” value read?
A: The value was “hardly observed”.
